Measurements as given in ChEMBL document CHEMBL1158309, “Callyspongins A and B: Novel Polyacetylene Sulfates from the Marine Sponge Callyspongia truncata That Inhibit Fertilization of Starfish Gametes” (J Nat Prod, 1996).
In brackets after ≈: the same amount, converted by molar mass. Activity calls are given as the source filed them. The calls are words filed in the database; no cut-off is given here.

Experiments:
[1] = Antifertilization activity in Asterias amurensis egg assessed as inhibition of egg activation after 30 mins; type: functional
[2] = Toxicity against Asterias amurensis sperm in sea water at 100 uM; type: cell-based
[3] = Toxicity against Asterias amurensis embryos lysed in sea water at 100 uM; parameters: species or system Embryo; settings: buffer
[4] = Antifertilization activity in Asterias amurensis sperm assessed as inhibition of sperm motility after 30 mins; type: functional, cell-based
[5] = Toxicity against Asterias amurensis egg in sea water at 100 uM; settings: buffer
[6] = Antifertilization activity in Asterias amurensis oocyte assessed as inhibition of 1-methyladenine-induced oocyte maturation at 100 uM; type: functional, cell-based
[7] = Antifertilization activity in Asterias amurensis fertilized egg assessed as inhibition of blastula development at 100 uM; type: functional

MIC [1] [µM] | MIC [4] [µM] | Structure (SMILES) | Activity [2] | Activity [3] | Activity [5] | Activity [6] | Activity [7]
> 200 | 13 (≈ 4.32 µg/mL) | C#C/C=C\CCCC/C=C\C#CC#CCCCC#CC#C[C@@H](O)CO [SIPHONODIOL] | Toxic | Toxic | Toxic | inactive | –
6.3 (≈ 3.1 µg/mL) | 50 (≈ 24.6 µg/mL) | C#C/C=C\CCCC/C=C\C#CC#CCCCC#CC#C[C@H](COS(=O)(=O)O)OS(=O)(=O)O | – | – | – | inactive | inactive
50 (≈ 20.6 µg/mL) | 100 (≈ 41.3 µg/mL) | C#C/C=C\CCCC/C=C\C#CC#CCCCC#CC#C[C@@H](O)COS(=O)(=O)O | – | – | – | inactive | inactive
